These results are taken from publication PMC8704611, “Synthesis, Molecular Docking Analysis, and Biological Evaluations of Saccharide-Modified Sulfonamides as Carbonic Anhydrase IX Inhibitors” (International Journal of Molecular Sciences, 2021).

One may read the IC50 as the concentration that gives 50% inhibition. Low values mean greater potency, high ones weaker potency. As a reminder, the melting point is the temperature, or range, at which the solid turns liquid.

The target of one data set is hCA II (Homo sapiens, UniProt P00918). In words: CA inhibition assay (hydrolysis of 4-nitrophenylacetate). Particulars: 4-NPA hydrolysis; three independent assays, relative errors 5–10%. The format is biochemical. The source says:
(§1) Carbonic anhydrase has the ability to catalyse the hydrolysis of 4-NPA. […] More detailed operations and specific parameters are as reported earlier.

The target of a further data set is hCA IX (Homo sapiens, UniProt Q16790). The description is as above. The data set is classed as biochemical. To be noted: 4-NPA hydrolysis; three independent assays, relative errors 5–10%.
Excerpt: as §1

Each structure is given as a SMILES string.

For the molecule `Cc1cc(-c2cn(-c3ccc(S(N)(=O)=O)cc3)nn2)ccc1NC(=O)CCCC(=O)N[C@@H]1O[C@H](CO)[C@@H](O)[C@H](O)[C@H]1O` [Compound 16l, N^1-(2-methyl-4-(1-(4-sulfamoylphenyl)-1H-1,2,3-triazol-4-yl)phenyl)-N^5-((2R,3R,4S,5S,6R)-3,4,5-trihydroxy-6-(hydroxymethyl)tetrahydro-2H-pyran-2-yl)glutaramide], the IC50 against hCA II turned out to be 25.6 nM; against hCA IX, 161 nM.
In turn, `COc1cc(-c2cn(-c3ccc(S(N)(=O)=O)cc3)nn2)ccc1N` [Compound 14f, 4-(4-(4-Amino-3-methoxyphenyl)-1H-1,2,3-triazol-1-yl)benzenesulfonamide] yielded a melting point of 230 to 233 °C. The molecule also gave an IC50 at hCA II of 100 nM. Also, inhibition on hCA IX was half-maximal at 120 nM (IC50).
The matching figures for `Nc1ccc(-c2cn(-c3ccc(S(N)(=O)=O)cc3)nn2)cc1Cl` [Compound 14d, 4-(4-(4-Amino-3-chlorophenyl)-1H-1,2,3-triazol-1-yl)benzenesulfonamide]: 201 to 203 °C, 39.9 nM and 71 nM.
The like results for `Nc1ccc(-c2cn(-c3ccc(S(N)(=O)=O)cc3)nn2)cc1[N+](=O)[O-]` [Compound 14h, 4-(4-(4-Amino-3-nitrophenyl)-1H-1,2,3-triazol-1-yl)benzenesulfonamide] were, in that order, 222 to 225 °C, 102 nM and 58.2 nM.
Turning to `NS(=O)(=O)c1ccc(-n2cc(-c3ccc(NC(=O)CCCC(=O)N[C@@H]4O[C@H](CO)[C@@H](O)[C@H](O)[C@H]4O)c(Cl)c3)nn2)cc1` [Compound 16k, N^1-(2-chloro-4-(1-(4-sulfamoylphenyl)-1H-1,2,3-triazol-4-yl)phenyl)-N^5-((2R,3R,4S,5S,6R)-3,4,5-trihydroxy-6-(hydroxymethyl)tetrahydro-2H-pyran-2-yl)glutaramide], the IC50 came out at 91 nM at hCA II and 290 nM against hCA IX.
`Nc1ccc(-c2cn(-c3ccc(S(N)(=O)=O)cc3)nn2)cc1` [Compound 14a, 4-(4-(4-Aminophenyl)-1H-1,2,3-triazol-1-yl)benzenesulfonamide] displayed a melting point of 256 to 258 °C. At hCA II, this molecule registered a half-inhibitory concentration (IC50) of 19.3 nM. This molecule registered a half-inhibitory concentration (IC50) at hCA IX of 54.4 nM.
For the molecule `NS(=O)(=O)c1ccc(-n2cc(-c3ccc(NC(=O)CCCC(=O)N[C@@H]4O[C@H](CO)[C@@H](O)[C@H](O)[C@H]4O)c(F)c3)nn2)cc1` [Compound 16j, N^1-(2-fluoro-4-(1-(4-sulfamoylphenyl)-1H-1,2,3-triazol-4-yl)phenyl)-N^5-((2R,3R,4S,5S,6R)-3,4,5-trihydroxy-6-(hydroxymethyl)tetrahydro-2H-pyran-2-yl)glutaramide], the IC50 against hCA II is 88.4 nM; at hCA IX, 230 nM.
`Cc1cc(-c2cn(-c3ccc(S(N)(=O)=O)cc3)nn2)ccc1N` [Compound 14e, 4-(4-(4-Amino-3-methylphenyl)-1H-1,2,3-triazol-1-yl)benzenesulfonamide] showed a melting point of 264 to 266 °C. Moreover, half-maximal inhibition against hCA II (IC50) was put at 37.9 nM. The molecule further gave an IC50 against hCA IX of 111 nM.
Take `COc1cc(-c2cn(-c3ccc(S(N)(=O)=O)cc3)nn2)ccc1NC(=O)CCC(=O)N[C@@H]1O[C@H](CO)[C@@H](O)[C@H](O)[C@H]1O` [Compound 16f, N^1-(2-methoxy-4-(1-(4-sulfamoylphenyl)-1H-1,2,3-triazol-4-yl)phenyl)-N^4-((2R,3R,4S,5S,6R)-3,4,5-trihydroxy-6-(hydroxymethyl)tetrahydro-2H-pyran-2-yl)succinamide]: the IC50 was 112 nM against hCA II and 329 nM on hCA IX.
The like results for `NS(=O)(=O)c1ccc(-n2cc(-c3ccc(NC(=O)CCCC(=O)N[C@@H]4O[C@H](CO)[C@@H](O)[C@H](O)[C@H]4O)cc3)nn2)cc1` [Compound 16h, N^1-(4-(1-(4-sulfamoylphenyl)-1H-1,2,3-triazol-4-yl)phenyl)-N^5-((2R,3R,4S,5S,6R)-3,4,5-trihydroxy-6-(hydroxymethyl)tetrahydro-2H-pyran-2-yl)glutaramide] were, in that order, 26 nM and 270 nM.
Take `NS(=O)(=O)c1ccc(-n2cc(-c3ccc(NC(=O)CCC(=O)N[C@@H]4O[C@H](CO)[C@@H](O)[C@H](O)[C@H]4O)c(F)c3)nn2)cc1` [Compound 16c, N^1-(2-fluoro-4-(1-(4-sulfamoylphenyl)-1H-1,2,3-triazol-4-yl)phenyl)-N^4-((2R,3R,4S,5S,6R)-3,4,5-trihydroxy-6-(hydroxymethyl)tetrahydro-2H-pyran-2-yl)succinamide]: the values for the IC50 on hCA II and on hCA IX were 70.2 nM and 150 nM, respectively.
The like results for `NS(=O)(=O)c1ccc(-n2cc(-c3cc(F)c(NC(=O)CCC(=O)N[C@@H]4O[C@H](CO)[C@@H](O)[C@H](O)[C@H]4O)c(F)c3)nn2)cc1` [Compound 16g, N^1-(2,6-difluoro-4-(1-(4-sulfamoylphenyl)-1H-1,2,3-triazol-4-yl)phenyl)-N^4-((2R,3R,4S,5S,6R)-3,4,5-trihydroxy-6-(hydroxymethyl)tetrahydro-2H-pyran-2-yl)succinamide] were, in that order, 149 nM and 544 nM.
In the case of `Nc1c(F)cc(-c2cn(-c3ccc(S(N)(=O)=O)cc3)nn2)cc1F` [Compound 14g, 4-(4-(4-Amino-3,5-difluorophenyl)-1H-1,2,3-triazol-1-yl)benzenesulfonamide], the melting point was 280 to 283 °C. At hCA II, this molecule gave an IC50 of 87 nM. Moreover, 107 nM corresponded to half-maximal inhibition against hCA IX (IC50).
For the molecule `NS(=O)(=O)c1ccc(-n2cc(-c3cc(F)c(NC(=O)CCCC(=O)N[C@@H]4O[C@H](CO)[C@@H](O)[C@H](O)[C@H]4O)c(F)c3)nn2)cc1` [Compound 16n, N^1-(2,6-difluoro-4-(1-(4-sulfamoylphenyl)-1H-1,2,3-triazol-4-yl)phenyl)-N^5-((2R,3R,4S,5S,6R)-3,4,5-trihydroxy-6-(hydroxymethyl)tetrahydro-2H-pyran-2-yl)glutaramide], the IC50 came out at 177 nM against hCA II and 352 nM at hCA IX.
The matching figures for `NS(=O)(=O)c1ccc(-n2cc(-c3cccc(NC(=O)CCCC(=O)N[C@@H]4O[C@H](CO)[C@@H](O)[C@H](O)[C@H]4O)c3)nn2)cc1` [Compound 16i, N^1-(3-(1-(4-sulfamoylphenyl)-1H-1,2,3-triazol-4-yl)phenyl)-N^5-((2R,3R,4S,5S,6R)-3,4,5-trihydroxy-6-(hydroxymethyl)tetrahydro-2H-pyran-2-yl)glutaramide]: 10.1 nM and 300 nM.
The like results for `NS(=O)(=O)c1ccc(-n2cc(-c3ccc(NC(=O)CCC(=O)N[C@@H]4O[C@H](CO)[C@@H](O)[C@H](O)[C@H]4O)c(Cl)c3)nn2)cc1` [Compound 16d, N^1-(2-chloro-4-(1-(4-sulfamoylphenyl)-1H-1,2,3-triazol-4-yl)phenyl)-N^4-((2R,3R,4S,5S,6R)-3,4,5-trihydroxy-6-(hydroxymethyl)tetrahydro-2H-pyran-2-yl)succinamide] were, in that order, 90.8 nM and 100 nM.
Turning to `Nc1ccc(-c2cn(-c3ccc(S(N)(=O)=O)cc3)nn2)cc1F` [Compound 14c, 4-(4-(4-Amino-3-fluorophenyl)-1H-1,2,3-triazol-1-yl)benzenesulfonamide], the melting point was 245 to 247 °C. Moreover, on hCA II, the IC50 came to 15.7 nM. This molecule came in with an IC50 at hCA IX of 40.4 nM.
Consider `NS(=O)(=O)c1ccc(-n2cc(-c3ccc(NC(=O)CCCC(=O)N[C@@H]4O[C@H](CO)[C@@H](O)[C@H](O)[C@H]4O)c([N+](=O)[O-])c3)nn2)cc1` [Compound 16o, N^1-(2-nitro-4-(1-(4-sulfamoylphenyl)-1H-1,2,3-triazol-4-yl)phenyl)-N^5-((2R,3R,4S,5S,6R)-3,4,5-trihydroxy-6-(hydroxymethyl)tetrahydro-2H-pyran-2-yl)glutaramide], for which the IC50 on hCA II came out at 129 nM; on hCA IX, 216 nM.
In turn, `Nc1cccc(-c2cn(-c3ccc(S(N)(=O)=O)cc3)nn2)c1` [Compound 14b, 4-(4-(3-Aminophenyl)-1H-1,2,3-triazol-1-yl)benzenesulfonamide] gave a melting point of 270 to 273 °C. At hCA II, this molecule showed an IC50 of 12.3 nM. The same molecule yielded an IC50 at hCA IX of 50.4 nM.
